Test results: ChEMBL document CHEMBL1148074, “Thalifaberidine, a cytotoxic aporphine-benzylisoquinoline alkaloid from Thalictrum faberi” (J Nat Prod, 1994)
Converted amounts (≈) assume the structure as drawn. The source made the active and inactive calls. The calls are words filed in the database; no cut-off is given here.

Experiments:
[1] = Selectivity index, ratio of ED50 for human KB cells to ED50 for chloroquine-sensitive Plasmodium falciparum D6; assay type: toxicity, cell-based; conditions: read-out: Selectivity Index
[2] = Selectivity index, ratio of ED50 for human KB cells to ED50 for chloroquine-resistant Plasmodium falciparum W2; assay type: toxicity, cell-based; conditions: read-out: Selectivity Index
Plasmodium falciparum [3] = experiment: Antimalarial activity against chloroquine-sensitive Plasmodium falciparum D6 infected human erythrocytes after 24 hrs by [3H]hypoxanthine uptake; assay type: functional; conditions: read-out: ED50 (the source's name)
Plasmodium falciparum [4] = experiment: Antimalarial activity against chloroquine-resistant Plasmodium falciparum W2 infected human erythrocytes after 24 hrs by [3H]hypoxanthine uptake; assay type: functional; conditions: read-out: ED50 (the source's name)
[5] = target: Human immunodeficiency virus type 1 reverse transcriptase (Human immunodeficiency virus 1) (UniProt Q72547); experiment: Inhibition of HIV1 reverse transcriptase
Col2 = experiment: Cytotoxicity against human Col2 cells after 3 days by SRB assay; assay type: functional; conditions: Col2, 72 h, read-out: ED50 (the source's name)
A-431 = experiment: Cytotoxicity against human A431 cells after 3 days by SRB assay; assay type: functional; conditions: A-431, 72 h, read-out: ED50 (the source's name)
Lu1 = experiment: Cytotoxicity against human Lu1 cells after 3 days by SRB assay; assay type: functional; conditions: Lu1, 72 h, read-out: ED50 (the source's name)
P388 = experiment: Cytotoxicity against mouse P388 cells after 3 days by SRB assay; assay type: functional; conditions: P388, 72 h, read-out: ED50 (the source's name)
HT-1080 = experiment: Cytotoxicity against human HT1080 cells after 3 days by SRB assay; assay type: functional; conditions: HT-1080, 72 h, read-out: ED50 (the source's name)
[6] = Cytotoxicity against human BCA1 cells after 3 days by SRB assay; assay type: functional; conditions: BCA1, 72 h, read-out: ED50 (the source's name)
ZR-75-1 = experiment: Cytotoxicity against human ZR-75-1 cells after 3 days by SRB assay; assay type: functional; conditions: ZR-75-1, 72 h, read-out: ED50 (the source's name)
[7] = Cytotoxicity against human U373 cells after 3 days by SRB assay; assay type: functional, U-373MG ATCC; conditions: U373 MG, 72 h, read-out: ED50 (the source's name)
KB = experiment: Cytotoxicity against human KB cells after 3 days by SRB assay; assay type: functional; conditions: 72 h, read-out: ED50 (the source's name)
LNCaP = experiment: Cytotoxicity against human LNCAP cells after 3 days by SRB assay; assay type: functional; conditions: 72 h, read-out: ED50 (the source's name)
[8] = Cytotoxicity against human KBVIN cells after 3 days by SRB assay; assay type: functional; conditions: 72 h, read-out: ED50 (the source's name)
[9] = Cytotoxicity against human KBVIN cells in presence of 1 ug/ml vinblastine after 3 days by SRB assay; assay type: functional; conditions: 72 h, read-out: ED50 (the source's name)

| SMILES | selectivity ratio [1] | selectivity ratio [2] | EC50 (Plasmodium falciparum [3]) | EC50 (Plasmodium falciparum [4]) | Activity [5] | EC50 (Col2) | EC50 (A-431) | EC50 (Lu1) | EC50 (P388) | EC50 (HT-1080) | EC50 [6] | EC50 (ZR-75-1) | EC50 [7] | EC50 (KB) | EC50 (LNCaP) | EC50 [8] | EC50 [9] |
| --- | --- | --- | --- | --- | --- | --- | --- | --- | --- | --- | --- | --- | --- | --- | --- | --- | --- |
| C=C[C@H]1CN2CC[C@H]1C[C@H]2[C@H](O)c1ccnc2ccc(OC)cc12 [QUININE] | > 960 | > 340 | 0.0208 µg/mL (≈ 0.0641 µM) | 0.0592 µg/mL (≈ 0.182 µM) |  |  |  |  |  |  |  |  |  |  |  |  |  |
| COc1cc2c(c(O)c1OC)CCN(C)[C@H]2Cc1ccc(Oc2c3c(cc(OC)c2OC)-c2c(OC)c(OC)c(O)c4c2[C@H](C3)N(C)CC4)cc1 [THALIFASINE] | 19 | 93 | 0.238 µg/mL (≈ 0.341 µM) | 0.0493 µg/mL (≈ 0.0705 µM) | inactive | 2.1 µg/mL (≈ 3.01 µM) | 8.2 µg/mL (≈ 11.7 µM) | 2 µg/mL (≈ 2.86 µM) | 1.2 µg/mL (≈ 1.72 µM) | 1.3 µg/mL (≈ 1.86 µM) | 2.4 µg/mL (≈ 3.43 µM) | 1.2 µg/mL (≈ 1.72 µM) | 2.2 µg/mL (≈ 3.15 µM) | 4.6 µg/mL (≈ 6.58 µM) | 3.3 µg/mL (≈ 4.72 µM) | 1.6 µg/mL (≈ 2.29 µM) | 5.7 µg/mL |
| CCN(CC)CCCC(C)Nc1ccnc2cc(Cl)ccc12 (centres undefined) [CHLOROQUINE] |  |  | 0.0035 µg/mL (≈ 0.0109 µM) |  |  |  |  |  |  |  |  |  |  |  |  |  |  |
| COc1cc2c(cc1O)CCN(C)[C@H]2Cc1ccc(Oc2c(O)c(OC)cc3c2C[C@H]2c4c(c(OC)c(OC)c(OC)c4-3)CCN2C)cc1 [THALIFABERIDINE] | 6.5 | 47 | 0.88 µg/mL (≈ 1.32 µM) | 0.122 µg/mL (≈ 0.182 µM) | inactive | 3.2 µg/mL (≈ 4.78 µM) | 6.7 µg/mL (≈ 10 µM) | 5.4 µg/mL (≈ 8.07 µM) | 0.6 µg/mL (≈ 0.897 µM) | 3.1 µg/mL (≈ 4.64 µM) | 3.9 µg/mL (≈ 5.83 µM) | 1.5 µg/mL (≈ 2.24 µM) | 1.5 µg/mL (≈ 2.24 µM) | 5.7 µg/mL (≈ 8.52 µM) | 3.7 µg/mL (≈ 5.53 µM) | 7.8 µg/mL (≈ 11.7 µM) | 17.7 µg/mL |
| OC(c1cc(C(F)(F)F)nc2c(C(F)(F)F)cccc12)C1CCCCN1 (centres undefined) [MEFLOQUINE] | 393 | 1840 | 0.0089 µg/mL (≈ 0.0235 µM) | 0.0019 µg/mL (≈ 0.00502 µM) |  |  |  |  |  |  |  |  |  |  |  |  |  |
| C[C@@H]1CC[C@H]2[C@@H](C)C(=O)O[C@@H]3O[C@@]4(C)CC[C@@H]1[C@]32OO4 [ARTEMISININ] | > 1820 | > 50000 | 0.0011 µg/mL (≈ 0.0039 µM) | 0.0004 µg/mL (≈ 0.00142 µM) |  |  |  |  |  |  |  |  |  |  |  |  |  |
| COc1cc2c(cc1OC)[C@H](Cc1ccc(Oc3c4c(cc(OC)c3OC)-c3c(OC)c(OC)c(OC)c5c3[C@H](C4)N(C)CC5)cc1)N(C)CC2 [THALIFABERINE] | 3 | 35 | 5.09 µg/mL (≈ 7.3 µM) | 0.441 µg/mL (≈ 0.633 µM) | inactive | 1.6 µg/mL (≈ 2.3 µM) | 4.9 µg/mL (≈ 7.03 µM) | 16.3 µg/mL (≈ 23.4 µM) | 1.3 µg/mL (≈ 1.87 µM) | 2.6 µg/mL (≈ 3.73 µM) | 5.4 µg/mL (≈ 7.75 µM) | 3.7 µg/mL (≈ 5.31 µM) | 4.1 µg/mL (≈ 5.88 µM) | 15.5 µg/mL (≈ 22.2 µM) | 5.7 µg/mL (≈ 8.18 µM) | 1.2 µg/mL (≈ 1.72 µM) | 4.6 µg/mL |
